Literature values, collected in patent US12042566B2, “Formulations of homotaurines and salts thereof” (Confluence Pharmaceuticals, LLC, priority 2017, dated 2024).

Tests used:
[1] = high solubility and low passive permeability
[2] = humans, reportedly

CC(=O)NCCCS(=O)(=O)O [acamprosate, 3-(Acetylamino)propylsulfonic acid]
Biopharmaceutics Classification System (BCS) class [1]: Class III | oral bioavailability [2]: about 11%
